For the experiment, the system named is 282377-053-R-J1-PDC complex spheroid viability. The experiment is described as follows: Anticancer human tumor 282377-053-R-J1-PDC patient-derived colon adenocarcinoma cell line growth inhibition [RAS]. Conditions: for viability, T/C: stronger effect = lower value. In a few lines: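 Multi-cell-type spheroids: tumor cells plus HUVEC endothelial cells and mesenchymal stem cells. RAS-pathway inhibitors were combined with targeted agents, each dosed in half-log steps down from clinical Cmax, or from 10 microM when Cmax was unknown.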

The mark [1] stands for this setting: curve of first compound, second compound 0.00316 µM.
[2] abbreviates: curve of first compound, second compound 0.01 µM.
[3] abbreviates: curve of first compound, second compound 0.0316 µM.
The mark [4] stands for this setting: curve of first compound, second compound 0.1 µM.
Where [5] appears, read: curve of first compound, second compound 0.316 µM.
[6] abbreviates: curve of first compound, second compound 1 µM.
[7] abbreviates: second compound 0.00316 µM, first compound 0.0316 µM.
The mark [8] stands for this setting: second compound 0.00316 µM, first compound 0.1 µM.
Where [9] appears, read: second compound 0.00316 µM, first compound 0.316 µM.
Where [10] appears, read: second compound 0.00316 µM, first compound 1 µM.
Where [11] appears, read: second compound 0.01 µM, first compound 0.0316 µM.
The mark [12] stands for this setting: second compound 0.01 µM, first compound 0.1 µM.
Setting [13] is: second compound 0.01 µM, first compound 0.316 µM.
Where [14] appears, read: second compound 0.01 µM, first compound 1 µM.
The mark [15] stands for this setting: second compound 0.0316 µM, first compound 0.0316 µM.
[16] abbreviates: second compound 0.0316 µM, first compound 0.1 µM.
Where [17] appears, read: second compound 0.0316 µM, first compound 0.316 µM.
Setting [18] is: second compound 0.0316 µM, first compound 1 µM.
[19] abbreviates: second compound 0.1 µM, first compound 0.0316 µM.
The mark [20] stands for this setting: second compound 0.1 µM, first compound 0.1 µM.
[21] abbreviates: second compound 0.1 µM, first compound 0.316 µM.
[22] abbreviates: second compound 0.1 µM, first compound 1 µM.
Setting [23] is: second compound 0.316 µM, first compound 0.0316 µM.
Where [24] appears, read: second compound 0.316 µM, first compound 0.1 µM.
The mark [25] stands for this setting: second compound 0.316 µM, first compound 0.316 µM.
Where [26] appears, read: second compound 0.316 µM, first compound 1 µM.
The mark [27] stands for this setting: second compound 1 µM, first compound 0.0316 µM.
Where [28] appears, read: second compound 1 µM, first compound 0.1 µM.
[29] abbreviates: second compound 1 µM, first compound 0.316 µM.
[30] abbreviates: second compound 1 µM, first compound 1 µM.

The structures appear in SMILES notation. Where “and” joins values, the source holds several entries; their conditions need not be identical. Identical values can stand only once. A value given as a limit tells only on which side of the number the result lay.

Usually IC50 stands for the concentration that gives 50% inhibition. A word on the viability, T/C: it is the ratio of treated to control.
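Also: spheroids exposed to agents for seven days before readout.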
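For viability, T/C in this document: luminescence viability as percent of DMSO vehicle control wells.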

As for `CCC(CC)c1cc(NC2CCC(N)C2)n2nccc2n1` (stereo not drawn) + C=CC(=O)N1CCN(c2nc(OCC3CCCN3C)nc3c(F)c(-c4nc(N)cc(C)c4C(F)(F)F)c(Cl)cc23)C(C)C1, the IC50 by setting is: under setting [1], 1.94 µM; under setting [2], 1.9 µM; under setting [3], 1.82 µM; under setting [4], 1.69 µM; under setting [5], 1.86 µM; under setting [6], 1.89 µM. Further, the viability, T/C was 117% under setting [7]; 101% under setting [8]; 93.8% under setting [9]; 116% under setting [10]; 7.62% (second compound 0.00316 µM, first compound 3.16 µM); 2.24% (second compound 0.00316 µM, first compound 10 µM). The viability, T/C is, setting by setting: under setting [11], 110%; under setting [12], 98.1%; under setting [13], 92%; under setting [14], 115%; (second compound 0.01 µM, first compound 3.16 µM) 7.28%; (second compound 0.01 µM, first compound 10 µM) 1.55%. The viability, T/C under setting [15] was 103%; the viability, T/C under setting [16] was 97%; the viability, T/C under setting [17] was 96.3%; the viability, T/C under setting [18] is 94.5%; the viability, T/C (second compound 0.0316 µM, first compound 3.16 µM) was 8.89%; the viability, T/C (second compound 0.0316 µM, first compound 10 µM) is 1.69%. The viability, T/C under setting [19] is 124%; the viability, T/C under setting [20] is 107%; the viability, T/C under setting [21] was 113%; the viability, T/C under setting [22] is 85.3%; the viability, T/C (second compound 0.1 µM, first compound 3.16 µM) was 7.78%; the viability, T/C (second compound 0.1 µM, first compound 10 µM) is 1.54%. Besides, the viability, T/C was 111% under setting [23]; 105% under setting [24]; 109% under setting [25]; 100% under setting [26]; 7.41% (second compound 0.316 µM, first compound 3.16 µM); 1.9% (second compound 0.316 µM, first compound 10 µM). The viability, T/C was 109% under setting [27]; 103% under setting [28]; 123% under setting [29]; 102% under setting [30]; 7.89% (second compound 1 µM, first compound 3.16 µM); 2.25% (second compound 1 µM, first compound 10 µM).
In the case of `O=C(c1ccc(F)c(F)c1Nc1ccc(I)cc1F)N1CC(O)([C@@H]2CCCCN2)C1` + C=CC(=O)N1CCN(c2nc(OCC3CCCN3C)nc3c(F)c(-c4nc(N)cc(C)c4C(F)(F)F)c(Cl)cc23)C(C)C1, the IC50 runs as follows: under setting [1], 0.0808 µM; under setting [2], 0.104 µM; under setting [3], 0.13 µM; under setting [4], 0.176 µM; under setting [5], 0.145 µM; under setting [6], 0.141 µM. For the same molecule, the viability, T/C is 90.2% (second compound 0.00316 µM, first compound 0.00316 µM); 88.3% (second compound 0.00316 µM, first compound 0.01 µM); 77.2% under setting [7]; 41.4% under setting [8]; 32.6% under setting [9]; 18.4% under setting [10]. In addition, the viability, T/C is 102% (second compound 0.01 µM, first compound 0.00316 µM); 94% (second compound 0.01 µM, first compound 0.01 µM); 68.8% under setting [11]; 52.3% under setting [12]; 31.6% under setting [13]; 17.7% under setting [14]. Further, the viability, T/C (second compound 0.0316 µM, first compound 0.00316 µM) is 88.5%; the viability, T/C (second compound 0.0316 µM, first compound 0.01 µM) was 87.3%; the viability, T/C under setting [15] was 81.3%; the viability, T/C under setting [16] was 56.1%; the viability, T/C under setting [17] was 28.9%; the viability, T/C under setting [18] was 20.7%. Also, the viability, T/C is, setting by setting: (second compound 0.1 µM, first compound 0.00316 µM) 95.6%; (second compound 0.1 µM, first compound 0.01 µM) 86.2%; under setting [19], 95.1%; under setting [20], 66.3%; under setting [21], 32.9%; under setting [22], 21.1%. For the same molecule, the viability, T/C is 101% (second compound 0.316 µM, first compound 0.00316 µM); 95.8% (second compound 0.316 µM, first compound 0.01 µM); 87.2% under setting [23]; 57.8% under setting [24]; 32.2% under setting [25]; 17.9% under setting [26]. In addition, the viability, T/C is 98.3% (second compound 1 µM, first compound 0.00316 µM); 93.7% (second compound 1 µM, first compound 0.01 µM); 98.5% under setting [27]; 55.7% under setting [28]; 35.5% under setting [29]; 18% under setting [30].
As for `CCC(CC)c1cc(NC2CCC(N)C2)n2nccc2n1` (stereo not drawn), the viability, T/C by setting is: (compound 1 µM) 112% [middle of 4 runs]; (compound 3.16 µM) 10.4% [middle of 4 runs]; (compound 10 µM) 3% [middle of 4 runs]. Moreover, the half-inhibitory concentration (IC50) (curve of compound) is 1.96 µM [middle of 4 runs].
Consider `CCc1c2c(nc3ccc(O)cc13)-c1cc3c(c(=O)n1C2)COC(=O)[C@]3(O)CC`, for which the viability, T/C (compound 0.000949 µM) was 106% [middle of 4 runs]; the viability, T/C (compound 0.003 µM) is 107% (2×) and 119% and 122%. Also, where the note is “curve of compound”, the IC50 is over 0.3 µM.
With `C[C@@H](NC(=O)c1ncnc(N)c1Cl)c1ncc(C(=O)Nc2cc(C(F)(F)F)c(Cl)cn2)s1`, the viability, T/C (compound 0.0316 µM) was 92.9% [middle of 4 runs]; the viability, T/C (compound 0.1 µM) was 94.9% [middle of 4 runs]; the viability, T/C (compound 0.316 µM) is 92.8% [middle of 4 runs]; the viability, T/C (compound 1 µM) was 94.9% [middle of 4 runs]; the viability, T/C (compound 3.16 µM) is 81.1% [middle of 4 runs]; the viability, T/C (compound 10 µM) is 72.1% [middle of 4 runs]. For the same molecule, the IC50 (curve of compound) is over 10 µM.

Source of the values: PubChem BioAssay AID2060905 (Molecular Pharmacology Branch, DTP, NCI, 2025).
